# Values joined by “and” are separate entries in the source; they are usually repeats but may differ in a detail not shown here. Equal entries are not always repeated.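 Growth conditions: 96-well plates. Treatment: test compound, 48 hours, 5 concentrations. Analysis: linear interpolation between bracketing concentrations; unreached endpoints set to highest concentration. GI50 marks 50% less growth. The concentration for full growth arrest is given as TGI.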
# Columns and labels:
# Experiment in all cases: DTP human tumour cell line panel, 48 h
# HCC-2998 colon = test system: HCC-2998 colon
# HT29 colon = test system: HT29 colon
# K-562 leukemia = test system: K-562 leukemia
# SF-295 CNS = test system: SF-295 CNS
# SK-MEL-28 melanoma = test system: SK-MEL-28 melanoma
# SN12C renal = test system: SN12C renal
# UACC-257 melanoma = test system: UACC-257 melanoma
# HS 578T breast = test system: HS 578T breast
# MCF7 breast = test system: MCF7 breast
# T-47D breast = test system: T-47D breast
SMILES,TGI (HCC-2998 colon) [µM],TGI (HT29 colon),TGI (K-562 leukemia),TGI (SF-295 CNS) [µM],TGI (SK-MEL-28 melanoma),TGI (SN12C renal),TGI (UACC-257 melanoma),GI50 (HCC-2998 colon) [µM],GI50 (HS 578T breast) [µM],TGI (HS 578T breast) [µM],GI50 (K-562 leukemia) [µM],GI50 (SF-295 CNS) [µM],GI50 (SK-MEL-28 melanoma) [µM],GI50 (SN12C renal) [µM],GI50 (UACC-257 melanoma) [µM],TGI (MCF7 breast),TGI (T-47D breast) [µM],GI50 (MCF7 breast) [µM],GI50 (T-47D breast) [µM],GI50 (HT29 colon)
Cc1ccc(NC(=O)CCC(CC(=O)C(C)(C)C)=NNC(=O)C(=O)NN)cc1C,> 100,> 100 µM,> 100 µM,> 100,> 100 µM,> 100 µM,> 100 µM,–,–,–,–,–,–,–,–,–,–,–,–,–
Cc1[nH]c2ccccc2c1C1Cc2ccccc2N1C(=O)/C=C/C=C/c1ccccc1 (stereo not drawn),> 100,> 100 µM,> 100 µM,> 100,> 100 µM,> 100 µM,> 100 µM,–,–,–,–,–,–,–,–,–,–,–,–,–
COC(=O)/C=C1/CCC2[C@@H](C(=O)CC3[C@]2(C)CCC[C@@]3(C)C(=O)OC)C1C (stereo partly drawn),39.8,20.2 µM,14.2 µM,33.1,26.8 µM,40.6 µM,24.7 µM,–,–,–,–,–,–,–,–,–,–,–,–,–
CC(=O)OC(/C=C1/C=CC(=O)O1)COC(=O)c1ccccc1 (stereo not drawn),> 31.2,> 31.2 µM,> 31.2 µM,> 31.2,> 31.2 µM,> 31.2 µM,> 31.2 µM,–,–,–,–,–,–,–,–,–,–,–,–,–
C/C(=C\C(C)COCc1ccccc1)[C@H](COCc1ccccc1)OCc1ccccc1 (stereo partly drawn),> 100,> 100 µM,> 100 µM,> 100,> 100 µM,> 100 µM,–,–,–,–,–,–,–,–,–,–,–,–,–,–
CCOC(=O)/C(=C\c1ccc(O)c(OC)c1)C(=O)c1ccccc1,38.1,> 66.8 µM,> 31.8 µM,> 52.6,27.7 µM,33.5 µM,> 49.7 µM,–,–,–,–,–,–,–,–,–,–,–,–,–
C=C1C(=O)O[C@H]2[C@H]1CC/C(COC(=O)CCCCC(=O)OC/C1=C/CC[C@@]3(C)O[C@H]3[C@H]3OC(=O)C(=C)[C@@H]3CC1)=C\CC[C@@]1(C)O[C@@H]21,3.94,–,> 100 µM,> 100,> 100 µM,> 100 µM,4.4 µM,2.09,1.97,8.46,1.87,6.32,2.85,2.62,1.82,–,–,–,–,–
CC1=NN(c2ccccc2)C(=O)C1N=Nc1ccc([As](=O)(O)O)c(O)c1 (stereo not drawn),–,> 100 µM,> 100 µM,> 100,> 100 µM,> 100 µM,> 100 µM,–,–,> 100,–,–,–,–,–,> 100 µM,> 100,–,–,–
COc1cc(/C=C2/C(=O)N(C(=O)OC(C)C)C(Cc3cc(OC)c(OC)c(C)c3OC)C(=O)N2Cc2ccccc2)c(OC)c(C)c1OC (stereo not drawn),> 100,> 100 µM,> 100 µM,> 100,> 100 µM,> 100 µM,> 100 µM,–,–,–,–,–,–,–,–,–,–,–,–,–
Cc1cc(O)cc2oc(=O)c3c(O)cc(O)cc3c12,40.8,> 100 µM,> 100 µM,63.6,> 100 µM,> 100 µM,> 100 µM,–,–,–,–,–,–,–,–,–,–,–,–,–
CCCCCCCCCCCCCC(=O)O[C@H]1CC[C@H](NC(=O)[C@H](OC)[C@H](O)[C@@H](O)[C@H](O)/C=C/C(C)C)C(=O)NC1,–,7.29 µM and 12.7 µM,11.8 µM and 15.4 µM,–,10.8 µM and 21.6 µM,10.8 µM and 18.6 µM,27.2 µM and 20.4 µM,–,0.0112,–,–,–,–,–,–,8.64 µM and 22.6 µM,> 100,0.00512,–,–
Cc1ccc(NC(=O)C(=O)C2C(=O)N(c3ccccc3)N=C2N)cc1C (stereo not drawn),> 100,> 100 µM,> 100 µM,> 100,> 100 µM,> 100 µM,> 100 µM,–,–,–,–,–,–,–,–,–,–,–,–,–
O=c1/c(=C/c2cccc([N+](=O)[O-])c2)sc2nc3ccccc3n12,> 100,> 100 µM,> 100 µM,–,> 100 µM,> 100 µM,> 100 µM,–,–,–,–,–,–,–,–,–,–,–,–,–
CCOC12OC3=C(CC1CC1=C(CCC1=O)O2)C(=O)CC3 (stereo not drawn),–,> 100 µM,> 100 µM,> 100,–,> 100 µM,> 100 µM,–,–,–,–,–,–,–,–,–,–,–,–,–
CC1=C(C(=O)Nc2ccc(F)c(Cl)c2)C(c2ccccc2Cl)NC(=S)N1 (stereo not drawn),–,–,> 50 µM,> 50,> 50 µM,42.9 µM,49.7 µM,–,> 50,> 50,21.7,39.8,> 50,13.3,19.7,> 50 µM,> 50,21.7,> 50,–
COc1cc(O)c2c(O)c3c(c4c2c1[C@]1(C4)C(C)=CCCC1(C)C)[C@H](O)[C@@]1(O)CC(=O)C(C(N)=O)=C(O)[C@@]1(O)C3=O,–,1.08 µM,1.52 µM,1.07,2.15 µM,1.25 µM,0.931 µM,–,–,2.25,–,–,–,–,–,1.23 µM,1.81,–,–,–
CC1CC2(C)ON=C(c3ccccc3)N2c2ccccc2S1 (stereo not drawn),–,80 µM,43 µM,79.1,–,34.2 µM,–,–,46.2,–,16.3,28.9,76.7,18,36.8,79 µM,–,31.4,58.5,27.9 µM
CC1=NN(c2ccccc2)C(=O)C1=C1SCCS1,> 100,> 100 µM,> 69.1 µM,> 100,> 100 µM,> 100 µM,> 100 µM,–,–,–,–,–,–,–,–,–,–,–,–,–
COc1ccc2c(=O)c(C)c(-c3ccccc3)oc2c1CN(C)C,> 100,> 100 µM,> 100 µM,> 100,> 100 µM,> 100 µM,> 100 µM,–,–,–,–,–,–,–,–,–,–,–,–,> 100 µM and 30.6 µM
CC1(C)COC(C23C4C5C2C2C3C4C52I)=N1 (stereo not drawn),> 100,> 100 µM,> 100 µM,> 100,> 100 µM,> 100 µM,> 100 µM,–,–,–,–,–,–,–,–,–,–,–,–,–
CCOC(=O)C12CCCC1(O)N(NC(=O)c1ccccc1)C(C)=C2C(=O)OC (stereo not drawn),> 100,> 100 µM,> 100 µM,> 100,–,> 100 µM,> 100 µM,–,–,–,–,–,–,–,–,–,–,–,–,–
COc1ccccc1OCC(=O)Nc1sc2c(c1C(N)=O)CCC2,> 100,> 100 µM,> 100 µM,–,> 100 µM,> 100 µM,–,> 100,> 100,> 100,> 100,–,> 100,> 100,–,> 100 µM,> 100,> 100,> 100,> 100 µM

# Source: PubChem BioAssay (NCI)
